Assay results reported in patent US12577247B2 (BUGWORKS RESEARCH, INC., priority 2021, dated 2026).
Where two headings read alike, the source gives them in different places.

What was measured:
hERG potassium channel = molecular target: T1, hERG potassium channel (Homo sapiens, UniProt Q12809); test: hERG inhibition assay, Qpatch HTX automated electrophysiology; format: cell-based; conditions: CHO cell line stably expressing hERG; whole-cell patch clamp; room temperature
T1 construct: a Chinese Hamster Ovary cell line stably expressing the full-length hERG potassium channel; expressed in transfected cells; host or cells: Chinese Hamster Ovary cell line
Procedure: The representative compounds of formula I were tested for inhibition of the human ether a go-go related gene (hERG) K+ channel using Qpatch HTX automated electrophysiology. 6-Point concentration-response curves were generated using three-fold serial dilutions from a maximum final test concentration of […] and the results are presented in Table 3.
Compounds were solubilised to 100 mM in DMSO before dilution in HBPS to 100 μM. […] Electrophysiological recordings were made from a Chinese Hamster Ovary cell line stably expressing the full-length hERG potassium channel. Single cell ionic currents were measured in whole-cell patch clamp configuration at room temperature (21-23° C.) using the Qpatch HTX platform (Sophion). Intracellular solution contained (mM): 120 KF, 20 KCl, 10 EGTA, 10 HEPES and was buffered to pH 7.3. […] Cells were clamped at a holding potential of −80 mV. Cells were stepped to +20 mV for 2 s then −40 mV for 3 s before returning to the holding potential. This sweep was repeated 10 times at 10 s intervals. hERG currents were measured from the tail step and referenced to the holding current. Compounds were then incubated for 2 minutes prior to a second measurement of ion channel current using an identical pulse train.

A2B receptor [1] = molecular target: T2, A2B receptor (Homo sapiens, UniProt P29275); test: A2bR antagonism IC50, cAMP TR-FRET in HEK-293 cells, high concentration of adenosine (30 μM); conditions: A2BR IC50 (nM) (@30 μM Adenosine), HEK-293 cells expressing A2B receptor; agonist adenosine 30 μM; 2% HSA; inhibition of cAMP;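 note: compounds preincubated 10 min with cells, then adenosine stimulation 30 min at room temperature in buffer with Rolipram 100 µM and EHNA 30 µM, TR-FRET read after 1 h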
T2 sequence (P29275 1-332): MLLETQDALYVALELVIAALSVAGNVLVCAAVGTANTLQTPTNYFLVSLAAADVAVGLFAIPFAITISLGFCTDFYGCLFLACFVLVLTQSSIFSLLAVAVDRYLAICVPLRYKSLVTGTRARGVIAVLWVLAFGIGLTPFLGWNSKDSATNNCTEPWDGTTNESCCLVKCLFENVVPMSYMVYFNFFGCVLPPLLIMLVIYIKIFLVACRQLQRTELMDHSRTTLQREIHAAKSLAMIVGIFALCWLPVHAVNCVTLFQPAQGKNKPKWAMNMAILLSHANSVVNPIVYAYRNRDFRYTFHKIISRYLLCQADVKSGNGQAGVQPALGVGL

A2A receptor [2] = molecular target: T3, A2A receptor (Homo sapiens, UniProt P29274); test: A2aR antagonism IC50, cAMP TR-FRET in HEK-293 cells, high concentration of adenosine (30 μM); format: cell-based; conditions: HEK-293 cells expressing A2A receptor; agonist adenosine 30 μM; 2% HSA; inhibition of cAMP; read-out: A2AR IC50 (nM) (@30 μM Adenosine);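 note: compounds added 10 min before adenosine, then 30 min stimulation at room temperature in buffer with 100 µM rolipram and 30 µM EHNA, signal read 1 h after detection reagents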
T3 construct: host or cells: HEK-293

[3] = system: human Peripheral blood mononuclear cells (PBMCs); test: Cytokine restoration assay in human PBMCs (IL-2, TNF-α) under NECA; format: cell-based; conditions: PBMC, NECA 5 μM, anti CD3/28 Dynabeads, 48 hours
Text: The ability of the invention compounds disclosed herein to restore the cytokines (IL-2 and TNF-α) release under adenosine agonist (NECA) environment evaluated using human Peripheral blood mononuclear cells (PBMCs). Peripheral blood was collected from healthy adult individuals in vacutainer tube. Peripheral blood mononuclear cells (PBMCs) were isolated via density gradient centrifugation, which uses Ficoll (Histopaque buffer) combined with short, low-speed centrifugation, to separate different cell populations. Diluted defibrinated blood was layered on a Ficoll and centrifuged at 1800 rpm for 20 minutes at 22° C. Differential migration of cells during centrifugation results in the formation of layers containing different cell types. The bottom layer contains erythrocytes. Remaining cells (i.e., lymphocytes, monocytes, and platelets) that are not dense enough to penetrate the Ficoll media layers (densities of 1.0770 g/ml), forms a buffy coat at the interface between the upper plasma layer and the Ficoll media layer. After carefully collected the buffy coat excess of platelets, Ficoll and plasma were removed by washing it with isotonic sterile phosphate buffered saline (PBS) and resulting cell pellet was resuspended in RPMI media with 5% FBS an P/S. The isolated PBMCs were allowed to be conditioned for an hour at 37° C. in a CO2 incubator. These cells were subsequently used for specific downstream assay. Isolated PBMC (3×10^5 cells/200 μl) were plated in 96 well microtiter plate in RPMI media with 5% FBS in presence of 100 units of penicillin plus 100 μg/ml streptomycin. NECA was added at a final concentration of 5 μM, control wells were maintained without NECA suppression (i.e., no NECA control). The assay plates were incubated at 37° C. for 4 hours in a CO2 incubator. Various concentrations of test compounds were added into respective wells in triplicates. Pre-washed anti CD3/28 Dynabeads (2.5 μL) was added for CD4 and CD8 + T-cell stimulation (to obtain a bead-to-cell ratio of 1:1). The assay plate was incubated at 37° C. in 5% CO2 and 20% ambient O2 maximum for 48 hours. At the end of 48 hours, the activated PBMC were harvested, and culture supernatants were used directly for further analysis. Forty-eight hours post treatment, 15 μL of cell-free supernatant was collected and assayed for secreted IL2 using the human Interleukin 2 (hIL2)—LANCE Ultra Detection Kit (Perkin Elmer). Similarly, level of soluble Tumor Necrosis Factor alpha (TNFα) was determined using human TNFα LANCE Ultra Detection Kit (Perkin Elmer). T-FRET signal was measured with Tecan spark multimode plate reader. Data was analyzed by graph-pad prism9. EC50 s of the compounds of Formula (I) in restoration of cytokine release under adenosine agonist from the human PBMCS are presented in Table 2

A2B receptor [4] = molecular target: T2, A2B receptor; test: A2bR antagonism IC50, cAMP TR-FRET (Lance Ultra) in HEK-293 cells, NECA as agonist; format: cell-based; set-up: host or cells: HEK-293; conditions: HEK-293 cells expressing A2B receptor; agonist NECA 30 nM (EC90); inhibition of cAMP
Text: (§1) Adenosine A2A receptors and Adenosine A2B receptors induce the production of cAMP when activated/stimulated by an agonist like adenosine or 5′-(N-Ethylcarboxamido) adenosine (NECA). A Time-Resolved Fluorescence Energy Transfer (TR-FRET) assay was used to show the inhibition of this cAMP production in HEK cells upon treatment with compounds of the Formula I of the present disclosure.
(§2) HEK-293 cells expressing A2A receptor (#ES-011-C) or A2B receptor (#ES 013-C) were obtained from PerkinElmer. Cells were maintained in DMEM medium supplemented with 10% FBS and 200 μg/mL of G418 at 37° C. and 5% CO2. The cells were cultured in antibiotic free medium for a period of 16-20 hours prior to the assay. All subsequent steps of the assay are performed at room temperature (22-24° C.). The cells were harvested at about 80% confluency by gentle flushing with PBS, recovered by centrifugation and resuspended in stimulation buffer at the concentration of 5.0×10^6 cells/mL.
(§3) The assays were conducted in a stimulation buffer containing 1×DMEM, 5 mM HEPES, 0.1% BSA stabilizer and 20-30 μM Rolipram. Serial dilutions of compounds were made in stimulation buffer to achieve a final concentration of high micromolar (10 μM to 0.08 nM) in the reaction volume of 10 μL. The total reaction volume was 10 μL (5 μL of cells, 2.5 μL of antagonist and 2.5 μL of agonist). The stimulation was ended, and the reaction completed by adding 5 μL of 4× Eu-cAMP tracer working solution and 5 μL of 4× ULight-anti-cAMP working solution. The TR-FRET signal was measured after 1-hour incubation using a Tecan M1000 reader.

A2A receptor [5] = molecular target: T3, A2A receptor; test: A2aR antagonism IC50, cAMP TR-FRET (Lance Ultra) in HEK-293 cells, NECA as agonist; format: cell-based; conditions: A2AR IC50 (nM) (@5 nM NECA), HEK-293 cells expressing A2A receptor; agonist NECA 5 nM (EC90); inhibition of cAMP;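 note: compounds tested from 10 µM down to 0.08 nM in buffer with Rolipram at room temperature, TR-FRET cAMP signal read 1 h after adding Eu-cAMP tracer and ULight anti-cAMP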
Text: as §1, §2, §3

[6] = read-out: IL-2 restoration EC50
[7] = read-out: TNF-α restoration EC50

T3 sequence (P29274 whole entry): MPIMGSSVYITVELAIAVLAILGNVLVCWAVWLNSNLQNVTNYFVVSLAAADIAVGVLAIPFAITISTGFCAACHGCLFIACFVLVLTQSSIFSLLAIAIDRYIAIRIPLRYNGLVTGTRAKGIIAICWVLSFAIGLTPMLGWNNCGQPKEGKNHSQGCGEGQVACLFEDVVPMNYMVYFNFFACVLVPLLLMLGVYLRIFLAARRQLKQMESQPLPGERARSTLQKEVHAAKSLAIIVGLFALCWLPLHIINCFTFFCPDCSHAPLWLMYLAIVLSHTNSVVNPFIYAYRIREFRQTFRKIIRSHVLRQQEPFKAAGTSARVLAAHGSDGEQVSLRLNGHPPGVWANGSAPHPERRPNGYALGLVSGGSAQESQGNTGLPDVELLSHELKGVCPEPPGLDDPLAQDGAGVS
T1 sequence (Q12809 whole entry): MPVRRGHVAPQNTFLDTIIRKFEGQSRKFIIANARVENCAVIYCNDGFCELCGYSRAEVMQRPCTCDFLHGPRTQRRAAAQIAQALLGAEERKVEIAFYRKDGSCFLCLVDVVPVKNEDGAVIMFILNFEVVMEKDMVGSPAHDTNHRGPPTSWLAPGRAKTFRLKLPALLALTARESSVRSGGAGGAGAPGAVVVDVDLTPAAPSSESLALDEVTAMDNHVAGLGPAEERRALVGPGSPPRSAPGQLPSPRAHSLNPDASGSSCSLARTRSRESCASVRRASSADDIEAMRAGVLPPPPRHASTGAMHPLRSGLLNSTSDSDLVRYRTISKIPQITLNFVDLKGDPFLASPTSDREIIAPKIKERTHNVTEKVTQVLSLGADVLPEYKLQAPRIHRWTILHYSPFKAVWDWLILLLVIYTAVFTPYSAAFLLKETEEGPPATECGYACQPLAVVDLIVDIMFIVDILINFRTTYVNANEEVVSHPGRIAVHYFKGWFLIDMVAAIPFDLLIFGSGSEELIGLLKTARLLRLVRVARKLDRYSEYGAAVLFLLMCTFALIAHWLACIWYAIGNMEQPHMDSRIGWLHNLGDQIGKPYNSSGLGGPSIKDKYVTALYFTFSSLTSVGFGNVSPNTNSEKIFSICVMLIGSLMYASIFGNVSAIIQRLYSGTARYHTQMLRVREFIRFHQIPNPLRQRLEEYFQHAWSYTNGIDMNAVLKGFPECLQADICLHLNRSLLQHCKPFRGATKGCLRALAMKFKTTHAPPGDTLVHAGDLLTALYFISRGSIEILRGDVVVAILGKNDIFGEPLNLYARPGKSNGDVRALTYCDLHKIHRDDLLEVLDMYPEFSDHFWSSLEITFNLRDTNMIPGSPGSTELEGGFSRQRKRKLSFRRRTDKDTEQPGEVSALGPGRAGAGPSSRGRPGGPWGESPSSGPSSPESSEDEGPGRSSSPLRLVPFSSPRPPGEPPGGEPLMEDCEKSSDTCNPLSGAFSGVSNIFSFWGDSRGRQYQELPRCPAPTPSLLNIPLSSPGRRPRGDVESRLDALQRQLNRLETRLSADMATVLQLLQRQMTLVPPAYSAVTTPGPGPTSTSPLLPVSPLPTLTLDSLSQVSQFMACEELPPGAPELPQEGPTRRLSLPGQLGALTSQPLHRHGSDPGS

| IC50 (A2B receptor [1]) | IC50 (A2A receptor [2]) | IC50 (A2B receptor [4]) | IC50 (A2A receptor [5]) | Structure (SMILES) | IC50 (hERG potassium channel) | EC50 [3, 6] | EC50 [3, 7] |
| --- | --- | --- | --- | --- | --- | --- | --- |
| 429 nM | 181 nM |  |  | CCc1c(C)nn2c(N)c(C#N)c(NCCc3cccc(CCCO)n3)nc12 [Example 155, 7-amino-3-ethyl-5-((2-(6-(3-hydroxypropyl)pyridin-2-yl)ethyl)amino)-2-methylpyrazolo[1,5-a]pyrimidine-6-carbonitrile] | > 100000 nM | 3.6 nM | 3.2 nM |
| 586 nM | 88 nM | 2 nM | < 0.1 nM | CCc1c(C)nn2c(N)c(C#N)c(NCCc3ccn(C4CCC4CO)n3)nc12 (single isomer, unassigned; (-)) [Example 79, (−)-7-amino-3-ethyl-5-((2-(1-(2-(hydroxymethyl)cyclobutyl)-1H-pyrazol-3-yl)ethyl)amino)-2-methylpyrazolo[1,5-a]pyrimidine-6-carbonitrile] | > 100000 nM | 2.2 nM | 1.4 nM |
